The source of these data is patent EP1980248B1, “Composition for treating cancer cells and synthetic method for the same” (Kaohsiung Medical University, priority 2007, dated 2008).

Assay in all cases: Cytotoxicity assay, MTT colorimetric method
Holding throughout (format): cell-based

The test system of one assay is MCF-7. The conditions noted are these: MCF-7 human breast cancer cell line, 72 hrs treatment, cell viability by MTT; for IC50: MCF7. The method, then:
(§1) Human liver (HepG2 and Hep3B), breast (MCF-7 and MDA-MB-231), and lung (A549) cancer cell lines were propagated in RPMI-1640 medium supplement with 10% (v/v) FBS, 100 U/mL penicillin and 100 µg/mL streptomycin at 37°C in a humidified atmosphere of 5% CO2 and 95% air. The culturing medium is changed every three days. Upon confluency, cells were subcultured to confluency, and used for experiments. The experimental period is determined according to the aim of experiment.
(§2) Cytotoxicity is measured by the MTT colorimetric method. Cells were seeded at densities of 5,000 - 10,000 cells/well in 96-well tissue culture plates. On day two, cells are treated with test compounds for another 72 hrs. After drug treatment, attached cells were incubated with MTT (0.5 mg/mL) for 1 hr and subsequently solubilized in DMSO. The absorbency at 550 nm is then measured using a microplate reader. The IC50 is the concentration of agent that reduces the cell viability by 50% under the experimental conditions, and the cytotoxic compound, Doxorubicin, is used as a positive control.

Another assay concerns Hep3B. The conditions noted are these: Hep3B human liver cancer cell line; 72 hrs treatment; cell viability by MTT. On the procedure:
as §1, §2

For another assay, the system named is MDA-MB-231. The conditions noted are these: MDA-MB-231 human breast cancer cell line; 72 hrs treatment; cell viability by MTT. On the procedure: as §1, §2
In the next assay the test system is A549. The note with it: A549 human lung cancer cell line; 72 hrs treatment; cell viability by MTT. On the procedure: as §1, §2
A further assay concerns HepG2. The conditions noted are these: HepG2 human liver cancer cell line; 72 hrs treatment; cell viability by MTT. The method, then:
as §1, §2

Converted amounts (≈) assume the structure as drawn.

With `COc1cc(O)c2c(=O)cc(C3(O)C=CC(=O)C=C3)oc2c1` [compound 18a, 5-hydroxy-2-(1-hydroxy-4-oxocyclohexa-2,5-dienyl)-7-methoxy-4H-chromen-4-one], the IC50 (as a rule, the concentration that inhibits the measured activity by half) was determined as 0.51 µg/mL (≈ 1.7 µM) in the assay with MCF-7; 0.2 µg/mL (≈ 0.666 µM) in the assay on Hep3B; 0.13 µg/mL (≈ 0.433 µM) with MDA-MB-231; 0.93 µg/mL (≈ 3.1 µM) in the assay with A549; 0.17 µg/mL (≈ 0.566 µM) in the assay on HepG2.

Take `O=C1C=CC(O)(c2cc(=O)c3ccccc3o2)C=C1` [compound 8a, 2-(1-hydroxy-4-oxocyclohexa-2,5-dienyl)-4H-chromen-4-one]: the half-maximal inhibitory concentration (IC50) with MCF-7 was found to be 0.44 µg/mL (≈ 1.73 µM); in the assay with Hep3B, 0.32 µg/mL (≈ 1.26 µM); with MDA-MB-231, 0.18 µg/mL (≈ 0.708 µM); with A549, 1.33 µg/mL (≈ 5.23 µM); with HepG2 it was 1.71 µg/mL (≈ 6.73 µM).

Take `O=C1C=CC(O)(c2cc(=O)c3c(ccc4ccccc43)o2)C=C1` [compound 15a, 3-(1-hydroxy-4-oxocyclohexa-2,5-dienyl)-1H-benzo[f]chromen-1-one]: the IC50 with MCF-7 stood at 0.2 µg/mL (≈ 0.657 µM); in the assay with Hep3B, 0.09 µg/mL (≈ 0.296 µM); in the assay on MDA-MB-231 it was 0.12 µg/mL (≈ 0.394 µM); in the assay on A549, 0.55 µg/mL (≈ 1.81 µM); in the assay on HepG2 it was 1.08 µg/mL (≈ 3.55 µM).

Turning to `COc1cccc2c1C(=O)c1c(O)c3c(c(O)c1C2=O)C[C@@](O)(C(=O)CO)C[C@@H]3O[C@H]1C[C@H](N)[C@H](O)[C@H](C)O1` [Doxorubicin, reference compound], the IC50 in the assay with MCF-7 worked out at 0.43 µg/mL (≈ 0.791 µM); in the assay with Hep3B, 0.36 µg/mL (≈ 0.662 µM); in the assay on MDA-MB-231, 0.08 µg/mL (≈ 0.147 µM); with A549, 0.21 µg/mL (≈ 0.386 µM); in the assay on HepG2, 0.29 µg/mL (≈ 0.534 µM).

Take `COC1(c2cc(=O)c3c(ccc4ccccc43)o2)C=CC(=O)C=C1` [compound 15b]: the IC50 in the assay on MCF-7 is 0.86 µg/mL (≈ 2.7 µM); in the assay on Hep3B, 0.35 µg/mL (≈ 1.1 µM); in the assay with MDA-MB-231, 0.37 µg/mL (≈ 1.16 µM); in the assay with A549 it was 8.2 µg/mL (≈ 25.8 µM); with HepG2 it was 3.16 µg/mL (≈ 9.93 µM).

Consider `COC1(c2cc(=O)c3c(C)cccc3o2)C=CC(=O)C=C1` [10b, 1'-methoxy-5-methylprotoflavonone], for which the “IC50 MCF-7” value in the assay on MCF-7 turned out to be 1.55 µg/mL (≈ 5.49 µM). Besides, the “IC50 Hep3B” value in the assay with Hep3B is recorded as 0.66 µg/mL (≈ 2.34 µM). The “IC50 MDA-MB-231” value in the assay with MDA-MB-231 is recorded as 0.54 µg/mL (≈ 1.91 µM). The “IC50 A549” value in the assay with A549 is listed as 16.36 µg/mL (≈ 58 µM). Also, the “IC50 HepG2” value in the assay on HepG2 came to 7.64 µg/mL (≈ 27.1 µM).

Take `O=C1C=CC(O)(c2cc(=O)c3c(O)cc(O)cc3o2)C=C1` [protoapigenone]: the IC50 with MCF-7 worked out at 1.07 µg/mL (≈ 3.74 µM); in the assay with Hep3B it was 0.65 µg/mL (≈ 2.27 µM); with MDA-MB-231, 0.41 µg/mL (≈ 1.43 µM); in the assay with A549, 3.96 µg/mL (≈ 13.8 µM); in the assay on HepG2 it was 2.32 µg/mL (≈ 8.11 µM).

For `O=C1C=CC(O)(c2cc(=O)c3c(O)cccc3o2)C=C1` [compound 10a, 2-(1-hydroxy-4-oxocyclohexa-2,5-dienyl)-5-hydroxy-4H-chromen-4-one], the concentration for half-maximal inhibition (IC50) was 0.93 µg/mL (≈ 3.44 µM) in the assay with MCF-7; 0.35 µg/mL (≈ 1.3 µM) in the assay on Hep3B; 0.18 µg/mL (≈ 0.666 µM) with MDA-MB-231; 1.37 µg/mL (≈ 5.07 µM) with A549; 1.34 µg/mL (≈ 4.96 µM) with HepG2.

In the case of `COC1(c2cc(=O)c3ccccc3o2)C=CC(=O)C=C1` [compound 8b, 1'-methoxyprotoflavonoen], the concentration for half-maximal inhibition (IC50) was 2.14 µg/mL (≈ 7.98 µM) in the assay on MCF-7; 1.45 µg/mL (≈ 5.41 µM) in the assay on Hep3B; 1.47 µg/mL (≈ 5.48 µM) in the assay with MDA-MB-231; > 20 µg/mL in the assay on A549; 10.9 µg/mL (≈ 40.8 µM) in the assay on HepG2.
